Test results: US11434242B2, “Dopamine-b-hydroxylase inhibitors” (BIAL-PORTELA & Cª, S.A., priority 2017, dated 2022)
Counter-ions that a name gives are not always drawn.

Biological target: T1, DβH (Homo sapiens, UniProt P09172)
T1 construct: cellular homogenate (75 μg total protein); host or cells: SK-N-SH cells (homogenate)
T1 sequence (P09172 1-617): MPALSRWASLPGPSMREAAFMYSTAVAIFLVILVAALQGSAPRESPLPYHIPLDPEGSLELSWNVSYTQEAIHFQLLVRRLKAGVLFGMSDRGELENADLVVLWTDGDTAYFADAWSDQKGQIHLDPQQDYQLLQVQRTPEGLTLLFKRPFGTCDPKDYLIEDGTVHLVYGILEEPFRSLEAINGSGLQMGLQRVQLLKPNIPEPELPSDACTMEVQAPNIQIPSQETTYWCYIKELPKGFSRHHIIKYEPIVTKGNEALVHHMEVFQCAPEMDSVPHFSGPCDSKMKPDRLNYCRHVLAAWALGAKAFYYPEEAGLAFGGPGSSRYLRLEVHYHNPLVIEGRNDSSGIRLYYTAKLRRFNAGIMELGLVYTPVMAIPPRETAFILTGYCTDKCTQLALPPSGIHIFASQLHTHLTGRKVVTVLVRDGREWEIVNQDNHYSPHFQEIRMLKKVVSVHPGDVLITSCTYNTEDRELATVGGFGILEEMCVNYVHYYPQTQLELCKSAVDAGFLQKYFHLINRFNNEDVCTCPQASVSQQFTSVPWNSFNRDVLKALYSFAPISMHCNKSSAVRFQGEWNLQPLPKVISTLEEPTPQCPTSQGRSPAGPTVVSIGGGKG
Assay: DβH inhibition assay in SK-N-SH cellular homogenates (tyramine to octopamine)
Assay type: biochemical
Settings: SK-N-SH cell homogenate; for SKNSH (1 μM), activity in % of control: inhibitor 1 μM; for SKNSH (0.1 μM), activity in % of control: inhibitor 0.1 μM

SKNSH (1 μM), activity in % of control	SKNSH (0.1 μM), activity in % of control	Structure (SMILES)
19.9 % of control		COC(=O)Cc1[nH]c(=S)n2c1[C@@H]1C[C@]1(c1cc(F)cc(F)c1)C2 [Example 5, Methyl 2-((5aS,6aR)-5a-(3,5-difluorophenyl)-3-thioxo-2,3,5,5a,6,6a-hexahydrocyclopropa[3,4]pyrrolo[1,2-c]imidazol-1-yl)acetate]
3.7 % of control	36.9 % of control	O=C(O)Cc1[nH]c(=S)n2c1[C@@H]1C[C@]1(c1cc(F)ccc1F)C2 [Example 6, 2-((5aS,6aR)-5a-(2,5-difluorophenyl)-3-thioxo-2,3,5,5a,6,6a-hexahydrocyclopropa[3,4]pyrrolo[1,2-c]imidazol-1-yl)acetic Acid]
3.6 % of control	45.6 % of control	O=C(O)Cc1[nH]c(=S)n2c1[C@@H]1C[C@]1(c1cc(F)cc(F)c1)C2 [Example 7, 2-((5aS,6aR)-5a-(3,5-difluorophenyl)-3-thioxo-2,3,5,5a,6,6a-hexahydrocyclopropa[3,4]pyrrolo[1,2-c]imidazol-1-yl)acetic Acid]
15.3 % of control		OCCc1[nH]c(=S)n2c1[C@@H]1C[C@]1(c1cc(F)cc(F)c1)C2 [Example 8, (5aS,6aR)-5a-(3,5-difluorophenyl)-1-(2-hydroxyethyl)-5,5a,6,6a-tetrahydrocyclopropa[3,4]pyrrolo[1,2-c]imidazole-3(2H)-thione]
2.1 % of control	46.4 % of control	O=C(O)Cc1[nH]c(=S)n2c1C[C@@H](c1c(F)c(F)cc(F)c1F)C2 [Example 10, (S)-2-(6-(2,3,5,6-tetrafluorophenyl)-3-thioxo-3,5,6,7-tetrahydro-2H-pyrrolo[1,2-c]imidazol-1-yl)acetic Acid]
28.5 % of control		O=C(O)Cc1[nH]c(=S)n2c1C[C@@H](c1cc(F)cc(F)c1)C2 [Example 11, (S)-2-(6-(3,5-difluorophenyl)-3-thioxo-3,5,6,7-tetrahydro-2H-pyrrolo[1,2-c]imidazol-1-yl)acetic Acid]
20.9 % of control		CCCCN(C)C(=O)Cc1[nH]c(=S)n2c1[C@@H]1C[C@]1(c1cc(F)ccc1F)C2 [Example 38, N-butyl-2-((5aS,6aR)-5a-(2,5-difluorophenyl)-3-thioxo-2,3,5,5a,6,6a-hexahydrocyclopropa[3,4]pyrrolo[1,2-c]imidazol-1-yl)-N-methylacetamide]
29.8 % of control		CCCCN(C)CCc1[nH]c(=S)n2c1[C@@H]1C[C@]1(c1cc(F)ccc1F)C2.Cl [Example 39, (5aS,6aR)-1-(2-(butyl(methyl)amino)ethyl)-5a-(2,5-difluorophenyl)-5,5a,6,6a-tetrahydrocyclopropa[3,4]pyrrolo[1,2-c]imidazole-3(2H)-thione Hydrochloride]
29.3 % of control		CN(CCc1[nH]c(=S)n2c1[C@@H]1C[C@]1(c1cc(F)ccc1F)C2)Cc1ccccc1 [Example 40, (5aS,6aR)-1-(2-(benzyl(methyl)amino)ethyl)-5a-(2,5-difluorophenyl)-5,5a,6,6a-tetrahydrocyclopropa[3,4]pyrrolo[1,2-c]imidazole-3(2H)-thione]
8.0 % of control	51.5 % of control	OCCc1[nH]c(=S)n2c1[C@@H]1C[C@]1(c1cc(F)ccc1F)C2 [Example 42, (5aS,6aR)-5a-(2,5-difluorophenyl)-1-(2-hydroxyethyl)-5,5a,6,6a-tetrahydrocyclopropa[3,4]pyrrolo[1,2-c]imidazole-3(2H)-thione]
45.6 % of control		O=C(O)c1[nH]c(=S)n2c1C[C@@H](c1cc(F)cc(F)c1)C2 [Example 43, (S)-6-(3,5-difluorophenyl)-3-thioxo-3,5,6,7-tetrahydro-2H-pyrrolo[1,2-c]imidazole-1-carboxylic Acid]
45.9 % of control		CCOC(=O)Cc1[nH]c(=S)n2c1C1CC1(c1cccs1)C2 (stereo not drawn) [Example 44, Ethyl 2-(5a-(thiophen-2-yl)-3-thioxo-2,3,5,5a,6,6a-hexahydrocyclopropa[3,4]pyrrolo[1,2-c]imidazol-1-yl)acetate]
33.7 % of control		Fc1ccc(F)c([C@]23C[C@H]2c2c(CCCc4ccccc4)[nH]c(=S)n2C3)c1 [Example 49, (5aS,6aR)-5a-(2,5-difluorophenyl)-1-(3-phenylpropyl)-5,5a,6,6a-tetrahydrocyclopropa[3,4]pyrrolo[1,2-c]imidazole-3(2H)-thione]
1.8 % of control	57.5 % of control	OCc1[nH]c(=S)n2c1[C@@H]1C[C@]1(c1cc(F)cc(F)c1)C2 [Example 50, (5aS,6aR)-5a-(3,5-difluorophenyl)-1-(hydroxymethyl)-5,5a,6,6a-tetrahydrocyclopropa[3,4]pyrrolo[1,2-c]imidazole-3(2H)-thione]

Structure (SMILES)	SKNSH (1 μM), activity in % of control	SKNSH (0.1 μM), activity in % of control
COC(=O)Cc1[nH]c(=S)n2c1[C@@H]1C[C@]1(c1cc(F)ccc1F)C2 [Example 4, Methyl 2-((5aS,6aR)-5a-(2,5-difluorophenyl)-3-thioxo-2,3,5,5a,6,6a-hexahydrocyclopropa[3,4]pyrrolo[1,2-c]imidazol-1-yl)acetate]	20.3 % of control	
O=C(Cc1[nH]c(=S)n2c1C[C@@H](c1cc(F)cc(F)c1)C2)N1CCOCC1 [Example 9, (S)-2-(6-(3,5-difluorophenyl)-3-thioxo-3,5,6,7-tetrahydro-2H-pyrrolo[1,2-c]imidazol-1-yl)-1-morpholinoethanone]	54.9 % of control	
N#CNC(=O)Cc1[nH]c(=S)n2c1C[C@@H](c1c(F)c(F)cc(F)c1F)C2 [Example 19, (S)—N-cyano-2-(6-(2,3,5,6-tetrafluorophenyl)-3-thioxo-3,5,6,7-tetrahydro-2H-pyrrolo[1,2-c]imidazol-1-yl)acetamide]	16.4 % of control	
NC(=O)Cc1[nH]c(=S)n2c1[C@@H]1C[C@]1(c1cc(F)cc(F)c1)C2 [Example 33, 2-((5aS,6aR)-5a-(3,5-difluorophenyl)-3-thioxo-2,3,5,5a,6,6a-hexahydrocyclopropa[3,4]pyrrolo[1,2-c]imidazol-1-yl)acetamide]	33.4 % of control	
NCCc1[nH]c(=S)n2c1[C@@H]1C[C@]1(c1cc(F)cc(F)c1)C2 [Example 35, (5aS,6aR)-1-(2-aminoethyl)-5a-(3,5-difluorophenyl)-5,5a,6,6a-tetrahydrocyclopropa[3,4]pyrrolo[1,2-c]imidazole-3(2H)-thione Hydrochloride]	45.9 % of control	
N#CCc1[nH]c(=S)n2c1[C@@H]1C[C@]1(c1cc(F)ccc1F)C2 [Example 36, 2-((5aS,6aR)-5a-(2,5-difluorophenyl)-3-thioxo-2,3,5,5a,6,6a-hexahydrocyclopropa[3,4]pyrrolo[1,2-c]imidazol-1-yl)acetonitrile]	50.1 % of control	
CN(Cc1ccccc1)C(=O)Cc1[nH]c(=S)n2c1[C@@H]1C[C@]1(c1cc(F)ccc1F)C2 [Example 37, N-benzyl-2-((5aS,6aR)-5a-(2,5-difluorophenyl)-3-thioxo-2,3,5,5a,6,6a-hexahydrocyclopropa[3,4]pyrrolo[1,2-c]imidazol-1-yl)-N-methylacetamide]	15.7 % of control	
Fc1ccc(F)c([C@]23C[C@H]2c2c(Cc4nnn[nH]4)[nH]c(=S)n2C3)c1 [Example 41, (5aS,6aR)-1-((1H-tetrazol-5-yl)methyl)-5a-(2,5-difluorophenyl)-5,5a,6,6a-tetrahydrocyclopropa[3,4]pyrrolo[1,2-c]imidazole-3(2H)-thione]	60.7 % of control	
O=Cc1[nH]c(=S)n2c1C[C@@H](c1cc(F)cc(F)c1)C2 [Example 45, (S)-6-(3,5-difluorophenyl)-3-thioxo-3,5,6,7-tetrahydro-2H-pyrrolo[1,2-c]imidazole-1-carbaldehyde]	46.8 % of control	
CS(=O)(=O)Cc1[nH]c(=S)n2c1C[C@@H](c1c(F)c(F)cc(F)c1F)C2 [Example 47, (S)-1-(methylsulfonylmethyl)-6-(2,3,5,6-tetrafluorophenyl)-6,7-dihydro-2H-pyrrolo[1,2-c]imidazole-3(5H)-thione]	62.9 % of control	
Fc1ccc(F)c([C@]23C[C@H]2c2c(CCc4ccccc4)[nH]c(=S)n2C3)c1 [Example 48, (5aS,6aR)-5a-(2,5-difluorophenyl)-1-phenethyl-5,5a,6,6a-tetrahydrocyclopropa[3,4]pyrrolo[1,2-c]imidazole-3(2H)-thione]	48.4 % of control	
